3 compounds from patent publication US20050267204A1, “Synergistic gold-containing compositions” (MEDICAL INNOVATIONS LIMITED, priority 1996, published 2005) can be followed below.

Entries after “also recorded” stand apart in the source; their conditions may differ. Read-outs that look alike come from different tables or passages of the source.

By Emax is commonly meant the size of the effect at its maximum, as opposed to the concentration needed.

Assay type in all cases: in vivo, BALB/c mice
One test relates to epidermal thickness. The test is described as follows: Time course of TPA effects on skin of mice: epidermal thickness. The settings on record: for Increase in epidermal thickness: single application 100 μL TPA 0.01% in acetone. The protocol:
(§1) Epidermal thickness was determined by image analysis. This image analysis system was a minicomputer (Tracor Northern TN8500) attached to a light microscope (Zeiss Axioplan) and a camcorder (Sony DXC-3000P). Sections were taken from each tissue block and 20 measurements were taken at fixed intervals from each section. The average value for the 20 measurements was obtained and entered as one value for each mouse. The mean and SEM for the six mice in each treatment group were calculated.
(§2) This study was conducted to determine the time course of effects produced by applying TPA to mice and killing at intervals of 1, 2, 3, 5 and 8 days. Peak times for epidermal hyperplasia, dermal inflammation and skin-fold thickness were determined. The object of this study was to determine the best time to sacrifice TPA-treated mice so as to obtain the maximum response to TPA. […] It was thus expected that a compromise time would have to be selected.
(§3) Forty two female BALB/c strain mice were divided into the treatment groups and the mice were treated with a single application (100 μL) of TPA (0.01% in acetone) and sacrificed at days 1, 2, 3, 5 and 8 and the time course of TPA effects on epidermal hyperplasia, dermal inflammatory cell infiltration and skin-fold thickness measured as described in Example 1.

The subject of the next test is skin-fold thickness. In words: Time course of TPA effects on skin of mice: skin-fold thickness. Conditions: for Increase in skin-fold thickness: single application 100 μL TPA 0.01% in acetone. The procedure:
The back skin of shaved mice was folded and measured by using a “Etalon” micrometer screw gauge. One measurement was taken for each mouse.
as §2, §3

The test system of test [1] is dermal inflammatory cell density. In words: Time course of TPA effects on skin of mice: dermal inflammatory cell density. Conditions: for Increase in dermal inflammatory cell density: single application 100 μL TPA 0.01% in acetone. The protocol: (§4) Infiltration of inflammatory cells was determined by the same image analysis system using the section taken from the block of mouse skin embedded in paraffin wax or Spurr's resin and stained with haematoxylin and eosin or toluidine blue respectively. For each section, 10 fields, unless otherwise stated, were chosen randomly and the cell density per mm^2 of field determined. The average value for the 10 fields was obtained and entered as one value for each mouse. The mean and SEM for the six mice in each treatment group were calculated.
The measurement of the inflammatory cell infiltration included the background values which included other materials in the dermis stained in the same way. However, the increase, if there is any, reflects the migration of inflammatory cells.
as §2, §3

Test [2] concerns TPA-induced inflammatory cell infiltration into the dermis. In words: Inhibition of TPA-induced inflammatory cell infiltration into the dermis of mice. The settings on record: for IC50 / Emax: Mus musculus; for Emax: read-out: Emax (% inhibition); for Relative potency: hydrocortisone acetate = 1.0. The protocol: (§5) The mice were housed in stainless steel cages, 6 mice per cage under normal laboratory conditions (room temperature at about 22° C.) at least 7 days before the experiments for acclimatization. Food and water were allowed ad libitum throughout the experiment period. The backs of the mice were shaved with an electric clipper two days before each treatment and only those mice showing no hair regrowth were used (i.e., the mice in the resting phase of the hair growth cycle were selected). During treatment, the mice were held with their tails and put on top of the cage so that they grasped the cage and rested there. The solutions were applied to an area approximately 2 cm×2 cm on the shaved back of the mice by using a “Pipetman” to apply the solution. If auranofin ointment or ointment base was applied, the amount was standardized by using a microspatula which was crimped at one end, the ointment was then put into the ridge and the excess removed by means of another microspatula and applied sparingly twice a day. After a fixed time, the mice were killed routinely by cervical dislocation between 9 a.m. and 11 a.m. to avoid variations due to circadian rhythms, and an area (1 cm×1 cm) was excised from the centre of the treated area by scalpel and scissors. The rest of the tissues were disposed by combustion. The tissues were then fixed, embedded, sectioned and stained.
as §4
The measurement of the inflammatory cell infiltration included the background values which included other materials in the dermis stained in the same way.
(§6) The percent inhibition of drug on TPA-induced skin responses (i.e., epidermal hyperplasia, inflammatory cell infiltration and skin-fold thickness) was calculated by using the following formula: [formula]
(§7) This provides estimates of (a) the potency, (b) the efficacy or maximum effect (Emax) and the slope of the log concentration-response curve by using Hill coefficient (γ). The Hill Equation may be expressed as follows: [formula] where IC50 is the drug concentration producing 50% of the maximal response and Emax refers to the maximal effect produced by the drug and is also termed efficacy. Efficacy is the measurement of the intrinsic ability of a drug to initiate a response once it occupies receptor sites. […] The Hill coefficient (γ) measures the slope of the dose-effect curve which can be markedly influenced by the shape of the curve that describes the binding of the drug to the receptor. For many drugs, y lies between 0.6 and 1.5. […] On the other hand, when γ is less than 1, with a shallow hyperbolic concentration effect relationship, the activity occurs over a wide range of drug levels.
(§8) In the present study, concentration-response curves were obtained for a series of corticosteroids. In these experiments, curve fitting was accomplished using a computer programme called “The Scientist” (MicroMath Scientific Software, Salt Lake City, Utah, USA.) in which the parameters, Emax, IC50 and Hill coefficient (γ) for each steroids were estimated by using non-linear regression and least square fits.
Mice were divided into treatment groups. TPA and corticosteroids were premixed to the concentrations required and applied to the backs of mice immediately.

Test [3] concerns TPA-induced epidermal hyperplasia. The test is described as follows: Inhibition of TPA-induced epidermal hyperplasia (epidermal thickness) on back skin of mice. Conditions: for IC50 / Emax: Mus musculus; for Emax: read-out: Emax (% inhibition); for Relative potency: hydrocortisone acetate = 1.0. The protocol: as §5, §1, §6, §7, §8
Mice were divided into treatment groups. TPA and corticosteroids were premixed to the concentrations required and applied to the backs of mice immediately. For those steroids not very soluble in acetone (i.e., betamethasone, dexamethasone, hydrocortisone and hydrocortisone acetate), the drugs were dissolved in 100 μL dimethylformamide before further dilution with acetone. The efficacy of corticosteroids in inhibiting epidermal hyperplasia, inflammatory cell infiltration and skin-fold thickness was assessed as described previously. Concentration-response curves were determined after computer-fitting of data.

Setting [4] is: from Hill equation, concentration that produced 50% of Emax, read-out: IC50 for inhibition of inflammatory cell infiltration in the dermis (M × 10^−4).
Setting [5] is: read from concentration-response curve, concentration that inhibited 50% of the TPA effect, read-out: IC50 for inhibition of inflammatory cell infiltration in the dermis (M × 10^−4).
Where [6] appears, read: topical, Hill equation fit, means ± SD, steroid premixed with TPA, topical, read-out: IC50 (M × 10^−4).
The mark [7] stands for this setting: Hill equation fit, means ± SD, steroid premixed with TPA, topical.
[8] abbreviates: from Hill equation, concentration that produced 50% of Emax, read-out: IC50 for inhibition of epidermal thickening (M × 10^−4).
Setting [9] is: read from concentration-response curve, concentration that inhibited 50% of the TPA effect, read-out: IC50 for inhibition of epidermal thickening (M × 10^−4).

In the case of `CCCCCCCCCCCCCC(=O)O[C@@H]1[C@@H](C)[C@@]2(O)[C@@H](C=C(CO)C[C@]3(O)C(=O)C(C)=C[C@@H]23)[C@@H]2C(C)(C)[C@]12OC(C)=O` [TPA, 12-O-tetradecanoylphorbol 13-acetate], the “Increase in epidermal thickness” value turned out to be 326% in the test with epidermal thickness (Day 1); 382% in the test on epidermal thickness (Day 2); 393% with epidermal thickness (Day 3); 270% with epidermal thickness (Day 5); 130% in the test with epidermal thickness (Day 8). For the same compound, the “Time of peak effect, epidermal hyperplasia” value in the test with epidermal thickness (single application of TPA) is 72 h. The “Increase in skin-fold thickness” value with skin-fold thickness (Day 1) stood at 193%; in the test with skin-fold thickness (Day 2) it was 142%; with skin-fold thickness (Day 3), 124%; in the test on skin-fold thickness (Day 5) it was 116%; in the test on skin-fold thickness (Day 8), 107%. In addition, the “Time of peak effect, skin-fold thickening” value in the test on skin-fold thickness (single application of TPA) is 24 h. In addition, the “Increase in dermal inflammatory cell density” value came out at 397% in test [1] (Day 1); 296% in test [1] (Day 2); 272% in test [1] (Day 3); 280% in test [1] (Day 5); 225% in test [1] (Day 8). The “Time of peak effect, dermal inflammation” value in test [1] (single application of TPA) was 24 h.

On to `CCCCC(=O)O[C@]1(C(=O)CO)[C@@H](C)C[C@H]2[C@@H]3CCC4=CC(=O)C=C[C@]4(C)[C@@]3(F)[C@@H](O)C[C@@]21C` [Betamethasone valerate, betamethasone valerate], for which the IC50 was found to be 29 µM in test [2] (setting [4]); 65 µM in test [2] (setting [5]); 29 ± 3 µM in test [2] (setting [6]); 15 µM in test [3] (setting [8]); 22 µM in test [3] (setting [9]); 15 ± 2 µM in test [3] (setting [6]). The maximal effect (Emax) in test [2] (setting [7]) was 73.5 ± 1.76%; in test [3] (setting [7]), 82.2 ± 2.84%. Further, the Relative potency in test [2] (from Hill-equation IC50) is 266.66; in test [2] (from IC50 read from curve), 169.23; in test [3] (from Hill-equation IC50), 244.47; in test [3] (from IC50 read from curve), 318.18. Moreover, the “Potency for inhibition of TPA-induced inflammatory cell infiltration (in words)” value in test [2] (ranking in text) is recorded as “strong to very strong anti-inflammatory effect”. In addition, the “Potency for inhibition of TPA-induced epidermal hyperplasia (in words)” value in test [3] is recorded as “strong to very strong potencies; also recorded: most potent agent”.

`C[C@@H]1C[C@H]2[C@@H]3CCC4=CC(=O)C=C[C@]4(C)[C@@]3(F)[C@@H](O)C[C@]2(C)[C@@]1(O)C(=O)CO` [Dexamethasone]: the IC50 was determined as 444 µM in test [2] (setting [4]); 410 µM in test [2] (setting [5]); 444 ± 102 µM in test [2] (setting [6]); 126 µM in test [3] (setting [8]); 200 µM in test [3] (setting [9]); 126 ± 44 µM in test [3] (setting [6]). The maximum response (Emax) in test [2] (setting [7]) was found to be 99%; in test [3] (setting [7]), 90.7 ± 5.72%. The Relative potency came out at 17.42 in test [2] (from Hill-equation IC50), 26.83 in test [2] (from IC50 read from curve), 29.10 in test [3] (from Hill-equation IC50) and 35.0 in test [3] (from IC50 read from curve).
